Test results published in ChEMBL document CHEMBL5303767, “Data for DCP probe JNJ-4355” (2023).
Each block holds one compound with its values, some of them ahead of it. The source made the active and inactive calls. The calls are words filed in the database; no cut-off is given here.

Tests used:
Mu-type opioid receptor [1] = target: T1, Mu-type opioid receptor (Homo sapiens, UniProt P35372); assay: GPCRScan assay: inhibition of MOR; parameters: radioligand conc. used [nm] 1.0 – 2.0, parental cells stable HEK
[2] = target: T2, Delta-type opioid receptor (Homo sapiens, UniProt P41143); assay: GPCRScan assay: inhibition of DOR; parameters: radioligand conc. used [nm] 1.0 – 2.0, parental cells stable HEK
[3] = target: T3, Induced myeloid leukemia cell differentiation protein Mcl-1 (Homo sapiens, UniProt Q07820); assay: HTRF (MCL1)
[4] = target: T3, Induced myeloid leukemia cell differentiation protein Mcl-1; assay: Caspase Glo MOLP-8 assay; format: functional, cell-based, MOLP8
[5] = target: Apoptosis regulator Bcl-2 (Homo sapiens, UniProt P10415); assay: HTRF (BCL2); format: functional
Bcl-2-related protein A1 = Bcl-2-related protein A1 (Homo sapiens, UniProt Q16548); assay: HTRF (BCL2A1)
Bcl-2-like protein 1 = Bcl-2-like protein 1 (Homo sapiens, UniProt Q07817); assay: HTRF (BCL2L1)
EOL1 = assay: EOL-1 cell line Proliferation assay; format: functional, Homo sapiens
NOMO-1 = assay: NOMO-1 cell line Proliferation assay; format: functional, Homo sapiens
MOLM-13 = assay: MOLM-13 cell line Proliferation assay; format: functional, Homo sapiens
MV4-11 = assay: MV4-11 cell line Proliferation assay; format: functional, Homo sapiens
THP-1 = assay: THP-1 cell line Proliferation assay; format: functional, Homo sapiens
OCI-AML2 = assay: OCI-AML-2 cell line Proliferation assay; format: functional, Homo sapiens
SUD4 = assay: SU-DHL-4 cell line Proliferation assay; format: functional, Homo sapiens
Mino = assay: MINO cell line Proliferation assay; format: functional, Homo sapiens
MOLP-8 = assay: MOLP8 cell line Proliferation assay; format: functional, Homo sapiens
KMS-12-PE [6] = assay: (§1) KMS-12-PE cell line Proliferation assay; format: functional, Homo sapiens
KMS-12-PE [7] = assay: as §1; format: functional, Homo sapiens; remark: listed apart in the source
KMS-12-PE [8] = assay: KMS-12-PE MCL-1 KO cell line Proliferation assay; format: functional, Homo sapiens
KMS-12-PE [9] = assay: KMS-12-PE Bax/Bak dKO cell line Proliferation assay; format: functional, Homo sapiens
[10] = target: 5-hydroxytryptamine receptor 1A (Homo sapiens) (UniProt P08908); details: Compound concentration 10.0 uM
[11] = target: 5-hydroxytryptamine receptor 1B (Homo sapiens) (UniProt P28222); details: Compound concentration 10.0 uM
[12] = target: 5-hydroxytryptamine receptor 1D (Homo sapiens) (UniProt P28221); details: Compound concentration 10.0 uM
5-hydroxytryptamine receptor 1D (Homo sapiens), sequence (P28221 whole entry): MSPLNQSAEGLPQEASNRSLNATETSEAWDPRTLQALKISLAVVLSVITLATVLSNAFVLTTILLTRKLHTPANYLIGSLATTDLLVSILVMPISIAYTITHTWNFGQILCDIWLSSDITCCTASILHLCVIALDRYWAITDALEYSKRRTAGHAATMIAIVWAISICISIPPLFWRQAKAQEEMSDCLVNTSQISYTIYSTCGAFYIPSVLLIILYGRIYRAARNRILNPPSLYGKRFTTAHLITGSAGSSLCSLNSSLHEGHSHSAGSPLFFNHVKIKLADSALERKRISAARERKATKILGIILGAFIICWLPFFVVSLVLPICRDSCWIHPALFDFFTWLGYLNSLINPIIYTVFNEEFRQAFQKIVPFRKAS

[13] = target: 5-hydroxytryptamine receptor 2A (Homo sapiens) (UniProt P28223); details: Compound concentration 10.0 uM
[14] = target: 5-hydroxytryptamine receptor 2B (Homo sapiens) (UniProt P41595); details: Compound concentration 10.0 uM
[15] = target: 5-hydroxytryptamine receptor 2C (Homo sapiens) (UniProt P28335); details: Compound concentration 10.0 uM
5-hydroxytryptamine receptor 2C (Homo sapiens), sequence (P28335 whole entry): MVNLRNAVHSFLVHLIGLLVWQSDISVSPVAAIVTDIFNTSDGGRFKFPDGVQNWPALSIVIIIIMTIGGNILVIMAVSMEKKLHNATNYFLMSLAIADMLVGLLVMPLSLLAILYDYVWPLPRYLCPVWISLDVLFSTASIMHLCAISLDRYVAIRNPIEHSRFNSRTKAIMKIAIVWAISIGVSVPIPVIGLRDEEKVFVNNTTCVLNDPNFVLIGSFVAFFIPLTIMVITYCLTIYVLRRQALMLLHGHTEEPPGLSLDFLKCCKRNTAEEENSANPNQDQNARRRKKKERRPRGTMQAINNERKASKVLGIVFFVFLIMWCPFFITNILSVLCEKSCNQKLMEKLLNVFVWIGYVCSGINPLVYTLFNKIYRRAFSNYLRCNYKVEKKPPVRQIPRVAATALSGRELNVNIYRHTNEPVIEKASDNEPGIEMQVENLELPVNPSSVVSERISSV

[16] = target: 5-hydroxytryptamine receptor 3A (Homo sapiens) (UniProt P46098); details: Compound concentration 10.0 uM
5-hydroxytryptamine receptor 3A (Homo sapiens), sequence (P46098 whole entry): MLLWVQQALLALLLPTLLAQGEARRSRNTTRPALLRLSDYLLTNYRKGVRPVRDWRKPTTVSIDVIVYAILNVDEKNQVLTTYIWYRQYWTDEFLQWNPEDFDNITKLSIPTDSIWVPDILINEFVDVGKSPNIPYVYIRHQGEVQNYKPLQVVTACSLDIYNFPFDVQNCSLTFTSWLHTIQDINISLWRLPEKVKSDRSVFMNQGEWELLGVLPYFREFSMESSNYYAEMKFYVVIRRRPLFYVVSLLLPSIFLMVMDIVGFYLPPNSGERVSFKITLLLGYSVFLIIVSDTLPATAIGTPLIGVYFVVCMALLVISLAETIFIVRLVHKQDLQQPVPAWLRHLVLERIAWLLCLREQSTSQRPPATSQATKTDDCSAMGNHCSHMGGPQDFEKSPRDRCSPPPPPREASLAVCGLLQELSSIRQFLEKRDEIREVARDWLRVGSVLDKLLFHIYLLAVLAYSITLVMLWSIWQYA

[17] = target: T4, 5-hydroxytryptamine receptor 5A (Homo sapiens, UniProt P47898); details: Compound concentration 10.0 uM
[18] = target: 5-hydroxytryptamine receptor 7 (Homo sapiens) (UniProt P34969); details: Compound concentration 10.0 uM
[19] = target: D(1A) dopamine receptor (Homo sapiens) (UniProt P21728); details: Compound concentration 10.0 uM
D(1A) dopamine receptor (Homo sapiens), sequence (P21728 whole entry): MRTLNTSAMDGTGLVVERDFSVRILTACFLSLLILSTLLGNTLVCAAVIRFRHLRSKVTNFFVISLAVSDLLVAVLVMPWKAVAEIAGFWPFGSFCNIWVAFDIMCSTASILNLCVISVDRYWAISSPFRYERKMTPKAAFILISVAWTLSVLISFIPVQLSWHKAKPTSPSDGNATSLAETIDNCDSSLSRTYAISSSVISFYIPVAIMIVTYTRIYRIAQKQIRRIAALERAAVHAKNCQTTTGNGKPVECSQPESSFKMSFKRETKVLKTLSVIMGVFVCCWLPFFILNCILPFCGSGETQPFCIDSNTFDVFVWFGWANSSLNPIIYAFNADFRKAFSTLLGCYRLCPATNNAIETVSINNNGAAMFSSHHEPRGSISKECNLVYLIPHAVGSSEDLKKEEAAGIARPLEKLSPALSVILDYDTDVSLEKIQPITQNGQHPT

[20] = target: D(2) dopamine receptor (Homo sapiens) (UniProt P14416); details: Compound concentration 10.0 uM
[21] = target: D(3) dopamine receptor (Homo sapiens) (UniProt P35462); details: Compound concentration 10.0 uM
[22] = target: D(4) dopamine receptor (Homo sapiens) (UniProt P21917); details: Compound concentration 10.0 uM
[23] = target: D(1B) dopamine receptor (Homo sapiens) (UniProt P21918); details: Compound concentration 10.0 uM
[24] = target: Sodium-dependent serotonin transporter (Homo sapiens) (UniProt P31645); details: Compound concentration 10.0 uM
[25] = target: T5, Sodium-dependent noradrenaline transporter (Homo sapiens, UniProt P23975); details: Compound concentration 10.0 uM
[26] = target: T6, Sodium-dependent dopamine transporter (Homo sapiens, UniProt Q01959); details: Compound concentration 10.0 uM
T6 sequence (Q01959 whole entry): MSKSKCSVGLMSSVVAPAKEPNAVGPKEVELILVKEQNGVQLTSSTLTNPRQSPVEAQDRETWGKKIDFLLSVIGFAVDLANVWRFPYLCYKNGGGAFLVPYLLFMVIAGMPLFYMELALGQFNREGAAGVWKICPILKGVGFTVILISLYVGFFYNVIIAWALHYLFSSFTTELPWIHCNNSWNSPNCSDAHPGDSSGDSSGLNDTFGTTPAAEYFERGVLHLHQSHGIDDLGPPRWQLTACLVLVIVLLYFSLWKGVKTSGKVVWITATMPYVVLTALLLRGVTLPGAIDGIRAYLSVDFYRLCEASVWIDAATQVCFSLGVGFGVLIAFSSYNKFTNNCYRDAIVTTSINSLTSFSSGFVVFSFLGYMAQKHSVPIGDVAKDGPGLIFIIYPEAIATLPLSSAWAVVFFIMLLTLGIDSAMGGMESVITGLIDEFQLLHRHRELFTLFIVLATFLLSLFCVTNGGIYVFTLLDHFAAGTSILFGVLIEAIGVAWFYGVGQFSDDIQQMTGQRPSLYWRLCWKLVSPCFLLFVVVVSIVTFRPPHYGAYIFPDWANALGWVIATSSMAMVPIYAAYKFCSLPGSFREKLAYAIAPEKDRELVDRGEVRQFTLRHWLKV

[27] = target: T2, Delta-type opioid receptor; details: Compound concentration 10.0 uM
[28] = target: Kappa-type opioid receptor (Homo sapiens) (UniProt P41145); details: Compound concentration 10.0 uM
Kappa-type opioid receptor (Homo sapiens), sequence (P41145 whole entry): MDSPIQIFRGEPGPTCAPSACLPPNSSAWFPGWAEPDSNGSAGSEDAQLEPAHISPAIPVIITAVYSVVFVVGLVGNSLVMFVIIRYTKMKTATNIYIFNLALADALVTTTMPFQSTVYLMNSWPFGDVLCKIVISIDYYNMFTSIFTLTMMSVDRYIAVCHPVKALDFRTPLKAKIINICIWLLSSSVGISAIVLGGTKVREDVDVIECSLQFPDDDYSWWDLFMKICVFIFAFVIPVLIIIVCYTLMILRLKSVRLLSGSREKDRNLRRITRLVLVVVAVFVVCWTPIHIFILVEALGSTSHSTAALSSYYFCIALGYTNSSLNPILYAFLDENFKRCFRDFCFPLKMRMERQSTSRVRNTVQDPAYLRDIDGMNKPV

[29] = target: Histamine H1 receptor (Homo sapiens) (UniProt P35367); details: Compound concentration 10.0 uM
[30] = target: Histamine H2 receptor (Homo sapiens) (UniProt P25021); details: Compound concentration 10.0 uM
[31] = target: Histamine H3 receptor (Homo sapiens) (UniProt Q9Y5N1); details: Compound concentration 10.0 uM
Histamine H3 receptor (Homo sapiens), sequence (Q9Y5N1 whole entry): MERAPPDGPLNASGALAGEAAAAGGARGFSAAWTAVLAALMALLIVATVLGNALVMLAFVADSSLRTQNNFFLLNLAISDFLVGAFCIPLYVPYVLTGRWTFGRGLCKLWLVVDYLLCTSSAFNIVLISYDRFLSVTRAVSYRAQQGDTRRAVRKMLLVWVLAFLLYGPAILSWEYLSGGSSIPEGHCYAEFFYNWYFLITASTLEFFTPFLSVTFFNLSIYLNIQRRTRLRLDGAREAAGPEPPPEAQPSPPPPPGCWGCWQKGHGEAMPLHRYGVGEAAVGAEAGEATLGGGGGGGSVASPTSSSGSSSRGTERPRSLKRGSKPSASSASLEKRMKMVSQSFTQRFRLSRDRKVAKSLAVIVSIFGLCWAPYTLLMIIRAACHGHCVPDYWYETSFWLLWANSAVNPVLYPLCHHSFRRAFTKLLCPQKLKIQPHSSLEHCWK

[32] = target: Alpha-1B adrenergic receptor (Homo sapiens) (UniProt P35368); details: Compound concentration 10.0 uM
Alpha-1B adrenergic receptor (Homo sapiens), sequence (P35368 whole entry): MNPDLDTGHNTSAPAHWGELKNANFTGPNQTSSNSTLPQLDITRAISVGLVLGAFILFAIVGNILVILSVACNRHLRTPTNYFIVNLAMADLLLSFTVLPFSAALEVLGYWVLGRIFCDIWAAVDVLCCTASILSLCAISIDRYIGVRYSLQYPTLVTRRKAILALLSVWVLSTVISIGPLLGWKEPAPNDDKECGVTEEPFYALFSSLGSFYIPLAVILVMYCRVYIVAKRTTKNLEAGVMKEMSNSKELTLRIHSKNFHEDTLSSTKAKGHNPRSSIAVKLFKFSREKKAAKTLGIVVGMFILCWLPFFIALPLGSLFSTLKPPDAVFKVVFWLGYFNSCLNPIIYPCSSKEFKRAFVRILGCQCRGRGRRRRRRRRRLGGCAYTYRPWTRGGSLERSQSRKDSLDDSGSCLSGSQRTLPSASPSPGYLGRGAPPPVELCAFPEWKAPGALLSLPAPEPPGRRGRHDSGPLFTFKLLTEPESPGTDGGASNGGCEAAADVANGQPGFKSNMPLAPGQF

[33] = target: Alpha-2A adrenergic receptor (Homo sapiens) (UniProt P08913); details: Compound concentration 10.0 uM
[34] = target: Alpha-2B adrenergic receptor (Homo sapiens) (UniProt P18089); details: Compound concentration 10.0 uM
[35] = target: Alpha-2C adrenergic receptor (Homo sapiens) (UniProt P18825); details: Compound concentration 10.0 uM
[36] = target: Beta-2 adrenergic receptor (Homo sapiens) (UniProt P07550); details: Compound concentration 10.0 uM
Beta-2 adrenergic receptor (Homo sapiens), sequence (P07550 whole entry, looked up): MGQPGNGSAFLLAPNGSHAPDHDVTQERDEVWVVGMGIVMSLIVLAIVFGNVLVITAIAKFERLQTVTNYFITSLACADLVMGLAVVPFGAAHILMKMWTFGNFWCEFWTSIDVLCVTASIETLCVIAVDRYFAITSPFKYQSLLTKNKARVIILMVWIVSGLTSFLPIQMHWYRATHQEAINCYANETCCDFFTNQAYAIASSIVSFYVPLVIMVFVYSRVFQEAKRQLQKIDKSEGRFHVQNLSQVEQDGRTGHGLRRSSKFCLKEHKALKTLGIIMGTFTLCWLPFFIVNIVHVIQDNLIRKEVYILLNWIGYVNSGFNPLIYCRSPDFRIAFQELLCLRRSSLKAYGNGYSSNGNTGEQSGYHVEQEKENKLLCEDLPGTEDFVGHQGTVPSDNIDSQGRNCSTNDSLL

[37] = target: Muscarinic acetylcholine receptor M1 (Homo sapiens) (UniProt P11229); details: Compound concentration 10.0 uM
[38] = target: Muscarinic acetylcholine receptor M2 (Homo sapiens) (UniProt P08172); details: Compound concentration 10.0 uM
[39] = target: Muscarinic acetylcholine receptor M3 (Homo sapiens) (UniProt P20309); details: Compound concentration 10.0 uM
Muscarinic acetylcholine receptor M3 (Homo sapiens), sequence (P20309 whole entry, looked up): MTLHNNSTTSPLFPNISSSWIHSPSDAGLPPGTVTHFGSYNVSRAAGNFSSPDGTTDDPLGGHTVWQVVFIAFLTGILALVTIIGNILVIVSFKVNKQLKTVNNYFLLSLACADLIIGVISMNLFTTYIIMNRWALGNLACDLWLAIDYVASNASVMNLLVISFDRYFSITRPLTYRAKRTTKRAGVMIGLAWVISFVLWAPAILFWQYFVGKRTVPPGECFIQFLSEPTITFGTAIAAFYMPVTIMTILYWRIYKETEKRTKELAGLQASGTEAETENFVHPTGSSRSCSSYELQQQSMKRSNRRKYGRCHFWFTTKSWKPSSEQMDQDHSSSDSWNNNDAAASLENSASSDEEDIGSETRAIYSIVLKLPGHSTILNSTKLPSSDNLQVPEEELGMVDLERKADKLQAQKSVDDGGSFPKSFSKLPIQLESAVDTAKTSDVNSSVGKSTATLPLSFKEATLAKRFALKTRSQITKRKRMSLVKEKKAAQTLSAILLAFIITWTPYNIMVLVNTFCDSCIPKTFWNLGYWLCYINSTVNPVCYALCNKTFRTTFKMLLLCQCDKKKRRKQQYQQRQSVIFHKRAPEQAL

[40] = target: Muscarinic acetylcholine receptor M5 (Homo sapiens) (UniProt P08912); details: Compound concentration 10.0 uM
[41] = target: Beta-3 adrenergic receptor (Homo sapiens) (UniProt P13945); details: Compound concentration 10.0 uM
Rattus norvegicus = species: Rattus norvegicus; details: Compound concentration 10.0 uM
[42] = target: Alpha-1D adrenergic receptor (Homo sapiens) (UniProt P25100); details: Compound concentration 10.0 uM
[43] = target: Sigma intracellular receptor 2 (Homo sapiens) (UniProt Q5BJF2); details: Compound concentration 10.0 uM
[44] = target: Sigma non-opioid intracellular receptor 1 (Homo sapiens) (UniProt Q99720); details: Compound concentration 10.0 uM
Sigma non-opioid intracellular receptor 1 (Homo sapiens), sequence (Q99720 whole entry): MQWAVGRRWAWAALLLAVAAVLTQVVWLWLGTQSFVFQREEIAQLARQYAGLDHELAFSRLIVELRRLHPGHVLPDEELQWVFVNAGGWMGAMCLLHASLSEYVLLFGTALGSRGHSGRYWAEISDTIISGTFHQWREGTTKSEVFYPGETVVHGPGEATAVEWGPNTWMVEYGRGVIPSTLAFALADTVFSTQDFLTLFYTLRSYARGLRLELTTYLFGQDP

[45] = target: 5-hydroxytryptamine receptor 1A (Homo sapiens, UniProt P08908); assay: GPCRScan assay: inhibition of 5-HT1A; parameters: radioligand conc. used [nm] 0.5 – 1.0, parental cells stable CHO
[46] = target: T4, 5-hydroxytryptamine receptor 5A; assay: GPCRScan assay: inhibition of 5-HT5A; parameters: radioligand conc. used [nm] 2.0 - 3.3, parental cells Flp-In CHO
[47] = target: T5, Sodium-dependent noradrenaline transporter; assay: GPCRScan assay: inhibition of NET; parameters: radioligand conc. used [nm] 1.3 – 5.0, parental cells stable HEK
[48] = target: T6, Sodium-dependent dopamine transporter; assay: GPCRScan assay: inhibition of DAT; parameters: radioligand conc. used [nm] 3.6 – 16.0, parental cells stable HEK
Mu-type opioid receptor [49] = target: T1, Mu-type opioid receptor; details: Compound concentration 10.0 uM
[50] = target: Alpha-1A adrenergic receptor (Homo sapiens) (UniProt P35348); details: Compound concentration 10.0 uM
[51] = target: Beta-1 adrenergic receptor (Homo sapiens) (UniProt P08588); details: Compound concentration 10.0 uM
[52] = target: Muscarinic acetylcholine receptor M4 (Homo sapiens) (UniProt P08173); details: Compound concentration 10.0 uM

Ki (Mu-type opioid receptor [1]): > 10 µM | pKi (Mu-type opioid receptor [1]): < 5 | Ki ([2]; read-out: Ki): 871 nM | Ki ([2]; read-out: pKi (converted)): 724 nM | Ki [3]: 0.015 nM (active) | AC50 [4]: 0.012 µM (active) | Ki [5]: > 3.75 µM (not active) | Ki (Bcl-2-related protein A1): > 5 µM (not active) | Ki (Bcl-2-like protein 1): > 5 µM (not active) | inhibition [10]: 47.8% | inhibition [11]: 9.97% | inhibition [12]: -6.42% | inhibition [13]: -0.64% | inhibition [14]: -1.5% | inhibition [15]: 1.66% | inhibition [16]: 6.57% | inhibition [17]: 28.5% | inhibition [18]: 20.1% | inhibition [19]: 10.4% | inhibition [20]: -6.66% | inhibition [21]: 13.5% | inhibition [22]: 2.7% | inhibition [23]: 26.2% | inhibition [24]: 11.2% | inhibition [25]: 30.1% | inhibition [26]: 49.5% | inhibition [27]: 61.9% | inhibition [28]: 0.68% | inhibition [29]: -0.28% | inhibition [30]: 13.1% | inhibition [31]: 4.96% | inhibition [32]: -1.94% | inhibition [33]: 21.5% | inhibition [34]: 6.6% | inhibition [35]: 3.84% | inhibition [36]: 4.71% | inhibition [37]: 4.67% | inhibition [38]: -0.94% | inhibition [39]: -0.43% | inhibition [40]: -9.51% | inhibition [41]: 24.5% | inhibition (Rattus norvegicus): 18.7% | inhibition [42]: 2.28% | inhibition [43]: 17.4% | inhibition [44]: 20.6%
Structure (SMILES): COCCOCCn1nc2c(c1C)-c1c(Cl)ccc3c1c(C)c(C(=O)O)n3CCCOc1cc(cc3c(F)c(Cl)ccc13)CCc1cc(nn1C)CSC2
Cell Proliferation AC50 (EOL1): 2.1 nM | Cell Proliferation AC50 (NOMO-1): 4.8 nM | Cell Proliferation AC50 (MOLM-13): 10 nM | Cell Proliferation AC50 (MV4-11): 14 nM | Cell Proliferation AC50 (THP-1): 27 nM | Cell Proliferation AC50 (OCI-AML2): 48 nM | Cell Proliferation AC50 (SUD4): 21 nM | Cell Proliferation AC50 (Mino): 73 nM | Cell Proliferation AC50 (MOLP-8): 8.7 nM | Cell Proliferation AC50 (KMS-12-PE [6]): 69 nM | Cell Proliferation AC50 (KMS-12-PE [7]): 79 nM | Cell Proliferation AC50 (KMS-12-PE [8]): >30 µM | Cell Proliferation AC50 (KMS-12-PE [9]): >30 µM

Ki ([45]; read-out: Ki): 1700 nM | Ki ([45]; read-out: pKi (converted)): 1580 nM | Ki ([46]; read-out: Ki): 2470 nM | Ki ([46]; read-out: pKi (converted)): 2450 nM | Ki ([47]; read-out: Ki): 2880 nM | Ki ([47]; read-out: pKi (converted)): 2750 nM | Ki ([48]; read-out: Ki): 3.72 µM | Ki ([48]; read-out: pKi (converted)): 3.55 µM | Ki ([2]; read-out: Ki): 3230 nM | Ki ([2]; read-out: pKi (converted)): 2630 nM | Ki [3]: 115 nM (not active) | AC50 [4]: > 30 µM (not active) | inhibition [10]: 76.5% | inhibition [11]: 26% | inhibition [12]: 31.4% | inhibition [13]: 10.6% | inhibition [14]: 6.21% | inhibition [15]: 7.75% | inhibition [16]: 8.89% | inhibition [17]: 54.5% | inhibition [18]: 19% | inhibition [19]: 34.7% | inhibition [20]: -6.49% | inhibition [21]: 18.2% | inhibition [22]: 3.35% | inhibition [23]: 51.7% | inhibition [24]: 11.4% | inhibition [25]: 58.9% | inhibition [26]: 57.7% | inhibition (Mu-type opioid receptor [49]): 10.4% | inhibition [27]: 78% | inhibition [28]: 36.6% | inhibition [29]: 10.8% | inhibition [30]: 11.6% | inhibition [31]: -6.18% | inhibition [50]: -4.41% | inhibition [32]: -0.92% | inhibition [33]: 6.61% | inhibition [34]: 29.5% | inhibition [35]: 7% | inhibition [51]: -3.32% | inhibition [36]: -3.65% | inhibition [37]: 1.89% | inhibition [38]: 4.4% | inhibition [39]: -1.43% | inhibition [52]: -9.96% | inhibition [40]: 2.15% | inhibition [41]: 14.2% | inhibition (Rattus norvegicus): 11.8% | inhibition [42]: 1.09% | inhibition [43]: 23.4% | inhibition [44]: 30.7%
Structure (SMILES): COCCOCCn1nc(C)c2c1CSCc1cc(n(C)n1)CCc1cc(c3ccc(F)cc3c1)OCCCn1c(C(=O)O)c(C)c3c-2c(Cl)ccc31
